Measurements taken from article PMC5291709, “Structure of the active form of human origin recognition complex and its ATPase motor module” (eLife, 2017).
Substitutions are numbered along the chain they refer to.

Key:
HsORC1-5 = target: T1, HsORC1-5 (Homo sapiens, UniProt O43913+O43929+Q13415, Q13415:R720Q); test: radiolabelled ATPase assay, TLC; type: biochemical; details: 50 mM Hepes-NaOH pH 7.5, 200 mM KCl, 5 mM MgCl2, 5 mM DTT, 37 C, 12.5-200 uM ATP, 10 uM complex; [gamma-32P]ATP tracer; ORC1/4 interface; Meier-Gorlin Syndrome mutant
T1 construct: gene ORC1; heteropentamer without ORC6; Sf9 insect cells; with Origin recognition complex subunit 5; Origin recognition complex subunit 2; Origin recognition complex subunit 3
T1 sequence (O43913 whole entry, one chain of several): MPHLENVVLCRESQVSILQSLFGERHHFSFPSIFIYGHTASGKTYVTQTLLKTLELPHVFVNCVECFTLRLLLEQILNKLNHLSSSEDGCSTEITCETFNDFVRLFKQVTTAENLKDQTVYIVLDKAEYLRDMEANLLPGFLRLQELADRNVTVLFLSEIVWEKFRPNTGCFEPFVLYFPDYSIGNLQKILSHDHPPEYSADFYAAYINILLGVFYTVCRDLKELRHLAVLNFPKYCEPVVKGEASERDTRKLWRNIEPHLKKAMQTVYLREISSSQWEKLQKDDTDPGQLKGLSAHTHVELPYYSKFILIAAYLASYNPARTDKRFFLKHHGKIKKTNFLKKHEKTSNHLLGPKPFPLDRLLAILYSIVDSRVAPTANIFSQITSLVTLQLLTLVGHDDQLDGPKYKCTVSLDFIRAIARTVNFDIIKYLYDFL
T1 sequence (Q13416 whole entry partner, one chain of several): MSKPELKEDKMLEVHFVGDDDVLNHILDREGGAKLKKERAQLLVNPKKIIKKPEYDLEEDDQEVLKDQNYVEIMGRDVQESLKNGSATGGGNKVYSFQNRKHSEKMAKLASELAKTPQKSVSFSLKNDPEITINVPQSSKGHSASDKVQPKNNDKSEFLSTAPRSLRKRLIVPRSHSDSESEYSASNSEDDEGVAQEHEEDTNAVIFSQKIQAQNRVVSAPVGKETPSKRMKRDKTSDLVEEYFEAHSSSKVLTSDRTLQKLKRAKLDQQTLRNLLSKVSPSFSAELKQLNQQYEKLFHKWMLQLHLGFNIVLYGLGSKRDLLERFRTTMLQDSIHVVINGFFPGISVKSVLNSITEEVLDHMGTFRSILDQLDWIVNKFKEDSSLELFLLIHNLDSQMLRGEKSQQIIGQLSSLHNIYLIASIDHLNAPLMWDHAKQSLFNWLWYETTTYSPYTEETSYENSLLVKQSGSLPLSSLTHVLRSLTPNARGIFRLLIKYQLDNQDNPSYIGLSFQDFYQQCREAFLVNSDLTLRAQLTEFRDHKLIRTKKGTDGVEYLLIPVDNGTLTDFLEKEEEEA
T1 sequence (Q9UBD5 whole entry partner, one chain of several): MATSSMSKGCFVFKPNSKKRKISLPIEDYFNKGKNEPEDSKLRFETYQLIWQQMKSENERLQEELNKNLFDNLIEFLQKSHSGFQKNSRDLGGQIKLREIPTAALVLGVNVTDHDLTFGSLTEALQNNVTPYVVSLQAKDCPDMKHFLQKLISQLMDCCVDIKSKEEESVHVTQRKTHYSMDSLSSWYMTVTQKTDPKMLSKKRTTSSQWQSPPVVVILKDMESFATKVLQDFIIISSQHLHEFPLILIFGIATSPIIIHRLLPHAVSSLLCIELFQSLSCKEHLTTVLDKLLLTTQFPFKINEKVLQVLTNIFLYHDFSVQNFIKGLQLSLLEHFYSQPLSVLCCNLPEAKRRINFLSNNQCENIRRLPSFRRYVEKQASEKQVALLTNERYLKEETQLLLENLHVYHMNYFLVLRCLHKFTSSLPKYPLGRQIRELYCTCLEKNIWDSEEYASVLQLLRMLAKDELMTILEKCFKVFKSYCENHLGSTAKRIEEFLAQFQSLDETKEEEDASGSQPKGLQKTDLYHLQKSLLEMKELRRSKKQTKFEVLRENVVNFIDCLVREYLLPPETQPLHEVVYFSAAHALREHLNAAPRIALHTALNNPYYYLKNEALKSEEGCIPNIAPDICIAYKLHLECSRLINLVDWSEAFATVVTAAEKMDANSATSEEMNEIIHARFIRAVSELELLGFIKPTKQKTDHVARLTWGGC

[1] = target: T2, HsORC motor module (HsORC1/4/5) (Homo sapiens, UniProt O43913+O43929+Q13415, Q13415:R720Q); test: radiolabelled ATPase assay, TLC; type: biochemical; details: 50 mM Hepes-NaOH pH 7.5, 200 mM KCl, 5 mM MgCl2, 5 mM DTT, 37 C, 12.5-200 uM ATP, 10 uM complex; [gamma-32P]ATP tracer; ORC1/4 interface; Meier-Gorlin Syndrome mutant (sensor-2 trigger)
T2 construct: gene ORC1; ORC1 471-861 (BAH domain removed), ORC4 full-length 1-436, ORC5 1-284 (WHD removed); Sf9 insect cells, two-Strep-SumoStar tag on ORC1 cleaved; heterotrimer
T2 sequence (Q13415 471-861 R720Q): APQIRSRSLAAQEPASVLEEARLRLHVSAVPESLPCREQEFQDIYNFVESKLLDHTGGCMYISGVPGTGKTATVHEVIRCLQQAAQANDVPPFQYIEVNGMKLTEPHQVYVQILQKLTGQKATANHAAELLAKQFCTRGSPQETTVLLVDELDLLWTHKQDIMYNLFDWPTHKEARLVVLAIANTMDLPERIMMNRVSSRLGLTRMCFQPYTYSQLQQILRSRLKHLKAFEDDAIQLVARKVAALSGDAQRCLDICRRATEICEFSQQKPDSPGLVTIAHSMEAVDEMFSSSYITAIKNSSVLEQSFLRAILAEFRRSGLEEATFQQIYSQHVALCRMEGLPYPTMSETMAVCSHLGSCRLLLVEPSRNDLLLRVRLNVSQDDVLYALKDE
T2 sequence (O43929 1-436): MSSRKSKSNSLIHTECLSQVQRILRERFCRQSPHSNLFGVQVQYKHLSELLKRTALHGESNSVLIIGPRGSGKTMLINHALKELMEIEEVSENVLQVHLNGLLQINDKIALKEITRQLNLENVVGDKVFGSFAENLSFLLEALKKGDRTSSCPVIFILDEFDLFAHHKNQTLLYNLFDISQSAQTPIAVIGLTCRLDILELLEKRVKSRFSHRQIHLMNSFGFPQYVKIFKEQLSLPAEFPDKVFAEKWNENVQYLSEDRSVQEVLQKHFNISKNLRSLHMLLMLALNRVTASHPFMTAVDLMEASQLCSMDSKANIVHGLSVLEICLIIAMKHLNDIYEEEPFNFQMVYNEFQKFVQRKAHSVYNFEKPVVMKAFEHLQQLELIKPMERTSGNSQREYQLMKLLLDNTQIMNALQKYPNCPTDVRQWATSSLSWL
T2 sequence (O43913 1-284): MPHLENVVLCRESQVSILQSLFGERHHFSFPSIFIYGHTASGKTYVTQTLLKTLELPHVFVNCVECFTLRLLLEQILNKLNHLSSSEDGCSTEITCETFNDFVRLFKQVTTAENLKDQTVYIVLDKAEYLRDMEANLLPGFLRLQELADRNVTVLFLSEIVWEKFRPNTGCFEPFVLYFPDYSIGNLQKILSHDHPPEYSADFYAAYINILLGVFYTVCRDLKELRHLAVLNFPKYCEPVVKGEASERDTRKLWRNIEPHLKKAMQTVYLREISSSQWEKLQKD

[2] = target: T3, HsORC motor module (HsORC1/4/5) (Homo sapiens, UniProt O43913+O43929+Q13415); test: X-ray crystal structure, […] A; type: binding; details: unhydrolysed ATP at the ORC1/ORC4 and ORC4/ORC5 interfaces and on ORC5; Mg2+
T3 construct: gene ORC1; ORC1 471-861 (BAH domain removed), ORC4 full-length 1-436, ORC5 1-284 (WHD removed); Sf9 insect cells, two-Strep-SumoStar tag on ORC1 cleaved; heterotrimer
T3 sequence (Q13415 471-861): T2 sequence (Q13415 471-861 R720Q) with Q250R
T3 sequence (O43929 1-436): T2 sequence (O43929 1-436)
T3 sequence (O43913 1-284): T2 sequence (O43913 1-284)

[3] = target: T4, HsORC motor module (HsORC1/4/5) (Homo sapiens, UniProt O43913+O43929+Q13415, O43929:Y174C); test: radiolabelled ATPase assay, TLC, Michaelis-Menten fit; type: biochemical; details: 50 mM Hepes-NaOH pH 7.5, 200 mM KCl, 5 mM MgCl2, 5 mM DTT, 37 C, 12.5-200 uM ATP, 10 uM complex; [gamma-32P]ATP tracer; ORC1/4 interface; Meier-Gorlin Syndrome mutant
T4 construct: gene ORC1; ORC1 471-861 (BAH domain removed), ORC4 full-length 1-436, ORC5 1-284 (WHD removed); Sf9 insect cells, two-Strep-SumoStar tag on ORC1 cleaved; heterotrimer
T4 sequence (Q13415 471-861): T2 sequence (Q13415 471-861 R720Q) with Q250R
T4 sequence (O43929 1-436 Y174C): T2 sequence (O43929 1-436) with Y174C
T4 sequence (O43913 1-284): T2 sequence (O43913 1-284)

[4] = target: T5, HsORC motor module (HsORC1/4/5) (Homo sapiens, UniProt O43913+O43929+Q13415, O43929:D159A/Q13415:D620A); test: radiolabelled ATPase assay, TLC; type: biochemical; details: 50 mM Hepes-NaOH pH 7.5, 200 mM KCl, 5 mM MgCl2, 5 mM DTT, 37 C, 12.5-200 uM ATP, 10 uM complex; [gamma-32P]ATP tracer; ORC1/4 interface; double Walker-B mutant
T5 construct: gene ORC1; ORC1 471-861 (BAH domain removed), ORC4 full-length 1-436, ORC5 1-284 (WHD removed); Sf9 insect cells, two-Strep-SumoStar tag on ORC1 cleaved; heterotrimer
T5 sequence (Q13415 471-861 D620A): T2 sequence (Q13415 471-861 R720Q) with D150A, Q250R
T5 sequence (O43929 1-436 D159A): T2 sequence (O43929 1-436) with D159A
T5 sequence (O43913 1-284): T2 sequence (O43913 1-284)

[5] = target: T6, HsORC motor module (HsORC1/4/5) (Homo sapiens, UniProt O43913+O43929+Q13415, Q13415:D620A); test: radiolabelled ATPase assay, TLC; type: biochemical; details: 50 mM Hepes-NaOH pH 7.5, 200 mM KCl, 5 mM MgCl2, 5 mM DTT, 37 C, 12.5-200 uM ATP, 10 uM complex; [gamma-32P]ATP tracer; ORC1/4 interface; Walker-B mutant
T6 construct: gene ORC1; ORC1 471-861 (BAH domain removed), ORC4 full-length 1-436, ORC5 1-284 (WHD removed); Sf9 insect cells, two-Strep-SumoStar tag on ORC1 cleaved; heterotrimer
T6 sequence (Q13415 471-861 D620A): T2 sequence (Q13415 471-861 R720Q) with D150A, Q250R
T6 sequence (O43929 1-436): T2 sequence (O43929 1-436)
T6 sequence (O43913 1-284): T2 sequence (O43913 1-284)

Nc1ncnc2c1ncn2[C@@H]1O[C@H](COP(=O)(O)OP(=O)(O)OP(=O)(O)O)[C@@H](O)[C@H]1O [ATP]
radiolabelled ATPase assay, TLC (HsORC1-5): the ORC1 MGS mutation R720Q all show very little activity | radiolabelled ATPase assay, TLC [1]: ORC1-R720Q abolished ATPase activity of the motor module | X-ray crystal structure, 3.4 A [2]: The HsORC motor module crystallized with ATP, and the nucleotides can be clearly seen | ATPase activity [3]: renders the motor module hyperactive for ATPase activity | radiolabelled ATPase assay, TLC [4]: A double mutant of the Walker-B motif of both ORC1 and ORC4 also abolished activity | radiolabelled ATPase assay, TLC [5]: Disrupting the ORC1 Walker-B motif (ORC1 D620A) effectively abolished ATPase activity
